One data set has as its system XylS/Pm. Type of data set: cell-based, P. putida KT2440.
The next data set deals with P. putida KT2440. The following applies: for growth rate as share of the maximum rate on glucose: 20 mM.
The test system of a further data set is Pmuc3 pSEVA228. Type of data set: cell-based, Pseudomonas putida.
For another data set, the system named is Pmuc10. The experiment in a line: Microtiter plate cultivation: growth with metabolites of the bioconversion. As to conditions: Example 6 (improved method).
Data set [1] concerns P. knackmussii. The data set is described as above. As to conditions: for growth rate as share of the μmax observed on only glucose: 15 mM.
In another data set the test system is BenR/Pben. Type of data set: cell-based, P. putida KT2440.
The next data set concerns CatR/Pcat. The format is cell-based, P. putida KT2440.
Data set [2] deals with P. knackmussii. The data set is described as follows: Shaken flask fermentation with 10 mM 2-FBz or 3-FBz. Type of data set: cell-based, Pseudomonas knackmussii. As to conditions: 10 mM 2-FBz, initial about 20 h.
The mark [3] stands for this setting: Example 1, 30 mM as sole carbon source.
The mark [4] stands for this setting: Example 6 (improved method), 30 mM as sole carbon source.
[5] abbreviates: Example 1, 30 mM glucose, 10 mM additive.
[6] abbreviates: Example 1, 30 mM glucose, 15 mM additive.
The mark [7] stands for this setting: Example 1, 30 mM glucose, 20 mM additive.
Where [8] appears, read: Example 6 (improved method), 30 mM glucose, 10 mM additive.
[9] abbreviates: Example 6 (improved method), 30 mM glucose, 15 mM additive.
[10] abbreviates: Example 6 (improved method), 30 mM glucose, 20 mM additive.
Setting [11] is: Example 1, 30 mM glucose, 0.5 mM additive.
The mark [12] stands for this setting: Example 1, 30 mM glucose, 1.0 mM additive.
Setting [13] is: Example 1, 30 mM glucose, 2.0 mM additive.
[14] abbreviates: Example 6 (improved method), 30 mM glucose, 0.5 mM additive.
Setting [15] is: Example 6 (improved method), 30 mM glucose, 1.0 mM additive.
Setting [16] is: Example 6 (improved method), 30 mM glucose, 2.0 mM additive.
[17] abbreviates: Example 6 (improved method), 30 mM glucose, 5.0 mM additive.

“Also recorded” adds a separate entry of the source. Where two headings read alike, the source gives them in different places.

For the compound `O=C([O-])c1ccccc1.[K+]` [K-benzoate, potassium benzoate], the “GFP expression from Pm relative to the one brought about by 1.0 mM 3-mBz” value with XylS/Pm (5.0 mM inducer) came to 20%. Besides, the “Maximum growth rate μmax” value in the data set with P. putida KT2440 (setting [3]) was 0.37 h⁻¹; in the data set with P. putida KT2440 (setting [4]), 0.62 h⁻¹; in the data set with Pmuc3 pSEVA228 (Example 1, 30 mM K-benzoate as carbon source, 0.5 mM 3-mBz) it was 0.16 h⁻¹; in the data set on Pmuc3 pSEVA228 (Example 6 (improved method), 30 mM K-benzoate as carbon source, 0.5 mM 3-mBz), 0.16 h⁻¹; in the data set on Pmuc10 (30 mM as sole carbon source) it was 0.53 h⁻¹; in the data set with P. knackmussii [1] (setting [3]), “no growth”. Moreover, in the data set with P. knackmussii [1] (setting [4]), the “Maximum growth rate μmax” value was “no growth”. In addition, the “increase in GFP expression over basal expression” value in the data set with BenR/Pben (2.0 mM) is reported as “No further increase”. Further, in the data set on BenR/Pben (5 mM), the “increase of induction compared to the uninduced system” value is 70%. For the same compound, the “GFP fluorescence as compared to the induction by 3-FBz” value with CatR/Pcat (5 mM) came out at 35%.
With `O=C(O)c1ccccc1F` [Strain 2-FBz, 2-fluorobenzoic acid], the qs with P. knackmussii [2] (Example 1) worked out at 0.26 mmol gCDW^−1 h^−1; with P. knackmussii [2] (Example 6), 0.81 mmol gCDW^−1 h^−1. The “growth rate as share of the maximum rate on glucose” value was 80% in the data set with P. putida KT2440 (Example 1) and 53% with P. putida KT2440 (Example 6). In addition, the “Maximum growth rate μmax” value was determined as 0.57 h⁻¹ in the data set with P. putida KT2440 (setting [5]); 0.53 h⁻¹ in the data set with P. putida KT2440 (setting [6]); 0.48 h⁻¹ in the data set with P. putida KT2440 (setting [7]); 0.56 h⁻¹ in the data set with P. putida KT2440 (setting [8]); 0.52 h⁻¹ in the data set on P. putida KT2440 (setting [9]); 0.46 h⁻¹ in the data set on P. putida KT2440 (setting [10]). For the same compound, the “Maximum growth rate μmax” value was 0.25 h⁻¹ in the data set with P. knackmussii [1] (setting [5]); 0.22 h⁻¹ in the data set with P. knackmussii [1] (setting [6]); “unable to grow at all” with P. knackmussii [1] (setting [7]); “no growth” with P. knackmussii [1] (Example 1, 30 mM glucose, 20 mM additive, listed as K-2-F-benzoate); 0.25 h⁻¹ in the data set on P. knackmussii [1] (setting [8]); 0.19 h⁻¹ with P. knackmussii [1] (setting [9]). The “Maximum growth rate μmax” value with P. knackmussii [1] (setting [10]) is listed as “unable to grow at all”; with P. knackmussii [1] (Example 6 (improved method), 30 mM glucose, 20 mM additive, listed as K-2-F-benzoate), “no growth”. Further, the “growth rate as share of the μmax observed on only glucose” value in the data set on P. knackmussii [1] (Example 1) is on record as 58%; in the data set on P. knackmussii [1] (Example 6) it was 54%.
With `Oc1cccc(F)c1O` [Strain 3-FC, 3-fluorocatechol], the “Maximum growth rate μmax” value worked out at 0.72 h⁻¹ in the data set on P. putida KT2440 (setting [11]); 0.65 h⁻¹ in the data set with P. putida KT2440 (setting [12]); 0.39 h⁻¹ with P. putida KT2440 (setting [13]); 0.71 h⁻¹ with P. putida KT2440 (setting [14]); 0.68 h⁻¹ in the data set with P. putida KT2440 (setting [15]); 0.36 h⁻¹ with P. putida KT2440 (setting [16]). Moreover, the “Maximum growth rate μmax” value was “no growth” with P. putida KT2440 (setting [17]); 0.61 h⁻¹ in the data set with Pmuc3 pSEVA228 (setting [11]); 0.48 h⁻¹ with Pmuc3 pSEVA228 (setting [12]); 0.22 h⁻¹ with Pmuc3 pSEVA228 (setting [13]); 0.74 h⁻¹ in the data set with Pmuc3 pSEVA228 (setting [14]); 0.22 h⁻¹ in the data set with Pmuc3 pSEVA228 (setting [16]). Further, the “Maximum growth rate μmax” value in the data set with Pmuc10 (30 mM glucose, 2.0 mM additive) is “no growth”; in the data set on P. knackmussii [1] (setting [11]), 0.28 h⁻¹; in the data set on P. knackmussii [1] (setting [12]), 0.17 h⁻¹; in the data set on P. knackmussii [1] (setting [13]), 0.11 h⁻¹; in the data set on P. knackmussii [1] (setting [14]) it was 0.32 h⁻¹; in the data set with P. knackmussii [1] (setting [15]) it was 0.31 h⁻¹. Moreover, the “Maximum growth rate μmax” value with P. knackmussii [1] (setting [16]) was 0.12 h⁻¹.
Take `Cc1cccc(C(=O)O)c1` [Strain 3-mBz, 3-methyl benzoate, reference compound]: in the data set with XylS/Pm (compound as inducer), the “GFP expression under Pm(ML1-17) control relative to the expression provided by Pm” value was 70%. In addition, the “induction by 1 mM as compared to 5 mM of the inducer” value with XylS/Pm (data not shown) is 94%. In addition, the “increase in GFP expression over basal expression” value in the data set with BenR/Pben (1.0 mM) was “No further increase”. The response entry in the data set with CatR/Pcat (1.0 mM) is recorded as “no response at all”.
As for `Oc1ccc(F)cc1O` [Strain 4-FC, 4-fluorocatechol], the “Maximum growth rate μmax” value in the data set with P. putida KT2440 (setting [11]) amounted to 0.77 h⁻¹; in the data set with P. putida KT2440 (setting [12]), 0.64 h⁻¹; in the data set on P. putida KT2440 (setting [13]), 0.48 h⁻¹; in the data set with P. putida KT2440 (setting [14]), 0.72 h⁻¹; with P. putida KT2440 (setting [15]), 0.52 h⁻¹; with P. putida KT2440 (setting [16]), 0.34 h⁻¹. In addition, the “Maximum growth rate μmax” value in the data set on P. putida KT2440 (setting [17]) is “no growth”; in the data set with Pmuc3 pSEVA228 (setting [11]) it was 0.55 h⁻¹; in the data set on Pmuc3 pSEVA228 (setting [12]) it was 0.54 h⁻¹; in the data set on Pmuc3 pSEVA228 (setting [13]), 0.35 h⁻¹; in the data set with Pmuc3 pSEVA228 (setting [14]) it was 0.55 h⁻¹; with Pmuc3 pSEVA228 (setting [15]) it was 0.50 h⁻¹. The “Maximum growth rate μmax” value with Pmuc3 pSEVA228 (setting [16]) was determined as 0.28 h⁻¹; with P. knackmussii [1] (setting [11]), 0.34 h⁻¹; with P. knackmussii [1] (setting [12]), 0.32 h⁻¹; in the data set with P. knackmussii [1] (setting [13]), 0.25 h⁻¹; with P. knackmussii [1] (setting [14]) it was 0.31 h⁻¹; with P. knackmussii [1] (setting [15]), 0.26 h⁻¹. Besides, the “Maximum growth rate μmax” value in the data set with P. knackmussii [1] (setting [16]) amounted to 0.17 h⁻¹.
Take `Oc1ccccc1O` [catechol, pyrocatechol]: the “Maximum growth rate μmax” value with P. putida KT2440 (setting [11]) turned out to be 0.72 h⁻¹; with P. putida KT2440 (setting [12]), 0.77 h⁻¹; in the data set on P. putida KT2440 (setting [13]), 0.78 h⁻¹; with P. putida KT2440 (setting [14]), 0.69 h⁻¹; with P. putida KT2440 (setting [15]), 0.71 h⁻¹; in the data set on P. putida KT2440 (setting [16]), 0.68 h⁻¹. The “Maximum growth rate μmax” value in the data set on Pmuc3 pSEVA228 (setting [13]) was 0.86 h⁻¹; in the data set with Pmuc3 pSEVA228 (setting [14]) it was 0.62 h⁻¹; with Pmuc3 pSEVA228 (setting [15]), 0.74 h⁻¹; in the data set on Pmuc3 pSEVA228 (setting [16]), 0.81 h⁻¹; in the data set with P. knackmussii [1] (setting [11]), 0.36 h⁻¹; with P. knackmussii [1] (setting [12]), 0.33 h⁻¹. In addition, the “Maximum growth rate μmax” value came out at 0.31 h⁻¹ in the data set with P. knackmussii [1] (setting [13]), 0.36 h⁻¹ in the data set on P. knackmussii [1] (setting [14]), 0.33 h⁻¹ in the data set on P. knackmussii [1] (setting [15]) and 0.29 h⁻¹ in the data set with P. knackmussii [1] (setting [16]). Moreover, the “increase of μmax with increasing concentration” value in the data set on P. putida KT2440 (Example 1, up to 2 mM) is recorded as “up to 30%”. Besides, the toxic effect entry in the data set with P. knackmussii [1] (up to 2 mM) is given as “slightly toxic effect; also recorded: Only a little toxic effect”.

(Values after patent US20230323410A1, “BACTERIAL CELLS AND METHODS FOR PRODUCTION OF 2-FLUORO-CIS,CIS-MUCONATE” (priority 2020, published 2023).)
